# Several values for one entry are separate records, joined by “and”; a condition that tells them apart may be missing. Equal entries are not always repeated.
# How the values were obtained:
# [1] = Olefin polymerization catalyst activator test; details: 20 μmole Zr, Zr/A/Al 1/4/250, MAO; listed as C
# Text: All solvents used in synthesis and polymerization experiments were obtained when possible as anhydrous grade and further purified as described below. Diethyl ether, hexanes and toluene were obtained from Aldrich Chemical Company (Milwaukee, Wis.) in Sure Seal® bottles as anhydrous grade. Solvents were further purified by passing through columns packed with activated A2 alumina and Q-5 catalyst which had been reduced tbennally under hydrogen. Methylliium in aiethyl ether, zirconecene dichloride, pentamethylcyclopentadienyl zirconium dichloride and methylaluminoxane (10 wt. % in toluene) were obtained from Aldrich Chemical Company and used without further purification. Methyllithium was titrated with an aqueous HCl standard (Aldrich Chemical Company) against a phenolphthalein indicator in order to determine the concentration prior to use. Tris(perfluorophenyl)borate (i.e., B2 borate) was obtained as a research sample from Albermarle (Baton Rouge, La.) (Lot # 29779501-10) and used without further purification.
# The solvent for polymerization experiments was 2,2,4-trimethylpentane (i.e., iso-octane) which was obtained from Aldrich Chemical Company in 18 L Stainless Steel Kilo Lab® Cylinders as anhydrous grade. The polymerization solvent was further purified by passing through columns packed with activated 13× molecular sieves and Q-5 catalyst. Periodic checks were performed on the water content of the solvent by Karl Fischer Columbmetric Titration and determined to contain 3 ppm or less water after purification. Solids were stored, weighed and transferred in glove box equipped with a catalyst train under dry nitrogen. Polymerization stock solutions and compositions were prepared in septum fitted bottles in a glove box. All solutions were freshly prepared for each set of evaluations.
# All solutions were prepared in a glove box under dry nitrogen in a glass narrow mouth bottle fitted with a septum. This solution was prepared by the dissolution of 63 mg of Cp2ZrMe2 in 50 mL of dry, nitrogen degassed toluene. The complex was completely miscible in the solvent. […]
# [2] = comparison species; cited from earlier work
# [3] = Conductivity of glyme (DME) solutions; assay type: physicochemical
# Text: A calibrated Yellow Springs model 3403 conductivity cell (cell constant k=1.113) and a model 31 conductivity bridge were employed. The measurements were made in a nitrogen-filled glove box. […] The concentration dependence of the conductivity of a lithium salt in a dilute solution is expected to be linear. The conductivity of a 0.01 M glyme solution of LiB12F11NMe3 is therefore expected to be about 78 μS cm^−1. The conductivity of a 0.0050 M glyme solution LiB12F11NMe3 is approximately ten times higher than the conductivity of a 0.010 M glyme solution of lithium triflate (4 μS cm−1).
# The conductivities of solutions of Li(Dd3NB12F11) and Li(Bn2HNB12F11) (the latter sample was contaminated with about 15% Li(BnH2NB12F11)) were measured using a similar procedure as that of Example 25. A calibrated Yellow Springs model 3403 conductivity cell (cell constant k=0.98 cm−1) and a Yellow Springs model 31 conductivity bridge was employed. The measurements were made in a nitrogen-filled glove box. The conductivities of glyme solutions of Li(Dd3NB12F11), Li(Bn2HNB12F11), and lithium salts of related anions are listed in Table 2.
# [4] = Solubility in organic solvents and water; assay type: physicochemical
# [5] = lithium salts, 0.0100 M DME solutions, 25° C., nitrogen atm.
smiles,measurement,setting,value
"Fc1c(F)c(F)c(OB(Oc2c(F)c(F)c(F)c(F)c2F)Oc2c(F)c(F)c(F)c(F)c2F)c(F)c1F [B2 borate, Tris(perfluorophenyl)borate]",Final Rate C2H4 uptake,[1],0.7 g/m and 0.9 g/m and 1.3 g/m and 0.8 g/m
same,Max Exotherm,[1],1 °C and 2 °C
same,Max Rate C2H4 uptake,[1],26.3 g/m and 21.7 g/m and 16.3 g/m and 24.9 g/m and 31.3 g/m
S [HS^−1],pKa value of selected acids,[2],19.0
F[P-](F)(F)(F)(F)F.[Li+] [LiPF6],conductivity,[3]; [5],73 μS cm−1
CCCCN [NH3Bu^+1],pKa value of selected acids,[2],10.8
CN [NH3Me^+1],pKa value of selected acids,[2],10.7
CCCC[N+](CCCC)(CCCC)CCCC.F[B-](F)(F)F [[NBu4][BF4]],solubility in water relative to [NBu4][H3NB12F11],[4],higher solubility
O=S(=O)([O-])C(F)(F)F.[Li+] [lithium triflate],conductivity,[3]; 0.010 M glyme solution,4 μS cm^−1
same,conductivity,[3]; [5],4 μS cm−1
